Measurements: US10106534B2 (CELGENE QUANTICEL RESEARCH, INC., priority 2014, dated 2018)

Columns and labels:
JMJD2C = JMJD2C (Homo sapiens (Human), UniProt Q9H3R0); experiment: In vitro enzyme inhibition assay for JMJD2C activity (TR-FRET); format: biochemical
In short: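 Demethylation product H3K9me2 quantified by TR-FRET ratio 665/615 after EDTA stop and 1 h with Eu-anti-H3K9me2 and streptavidin-APC; IC50 by curve fit. Reaction: 0.3 nM JMJD2C (AA 2-372, baculovirus), 2 μM α-ketoglutarate, 300 nM biotin-H3K9me3 peptide, pH 7.3 HEPES with Fe(II)/ascorbate, 30 min room temperature.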

[1] = tested on: KYSE-150 esophageal carcinoma cell line; experiment: In vitro cell-based assay: cellular proliferation via BrdU incorporation (ELISA); parameters: species or system human; settings: Homo sapiens, KYSE-150, 168 hours compound incubation
In short: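 BrdU incorporation during S-phase, detected colorimetrically at 450 nm by peroxidase ELISA, measured proliferation after 168 h compound exposure.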

Chain of JMJD2C (Q9H3R0 2-372): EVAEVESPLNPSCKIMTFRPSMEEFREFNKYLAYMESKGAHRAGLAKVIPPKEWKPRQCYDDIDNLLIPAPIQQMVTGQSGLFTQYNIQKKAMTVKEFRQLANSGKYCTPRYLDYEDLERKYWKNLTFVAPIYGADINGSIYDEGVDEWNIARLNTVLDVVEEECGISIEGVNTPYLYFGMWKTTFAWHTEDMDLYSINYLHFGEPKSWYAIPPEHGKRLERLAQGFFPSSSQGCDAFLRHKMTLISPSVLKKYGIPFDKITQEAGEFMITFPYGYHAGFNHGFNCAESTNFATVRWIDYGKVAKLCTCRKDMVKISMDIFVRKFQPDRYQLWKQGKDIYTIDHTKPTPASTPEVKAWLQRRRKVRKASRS

SMILES | IC50 (JMJD2C) [µM] | IC50 [1] [µM]
CCCc1ccc(N(C)c2ccc3c(c2)OCC[C@H]3CNc2cnccc2C(=O)O)cc1 [Example 208, 3-({[(4R)-7-[methyl(4-propylphenyl)amino]-3,4-dihydro-2H-1-benzopyran-4-yl]methyl}amino)pyridine-4-carboxylic acid] | 1 to 10 | ≤ 0.1
CN(c1ccc(CO)cc1)c1ccc2c(c1)CCC[C@H]2CNc1cnccc1C(=O)O [Example 158, 3-({[(1R)-6-{[4-(hydroxymethyl)phenyl](methyl)amino}-1,2,3,4-tetrahydronaphthalen-1-yl]methyl}amino)pyridine-4-carboxylic acid] | 0.1 to 1 | 0.1 to 1
Cc1ccccc1Oc1ccc2c(c1)CCC[C@H]2CNc1cnccc1C(=O)O [Example 58, 3-({[(1R)-6-(2-methylphenoxy)-1,2,3,4-tetrahydronaphthalen-1-yl]methyl}amino)pyridine-4-carboxylic acid] | 0.1 to 1 | ≤ 0.1
O=C(O)c1ccncc1NC[C@@H]1CCOc2cc(-c3cccc(F)c3Cl)ccc21 [Example 44, 3-({[(4R)-7-(2-chloro-3-fluorophenyl)-3,4-dihydro-2H-1-benzopyran-4-yl]methyl}amino)pyridine-4-carboxylic acid] | 0.1 to 1 | 0.1 to 1
CN(c1ccc(C2=CCOCC2)cc1)c1ccc2c(c1)CCC[C@H]2CNc1cnccc1C(=O)O [Example 174, 3-({[(1R)-6-{[4-(3,6-dihydro-2H-pyran-4-yl)phenyl](methyl)amino}-1,2,3,4-tetrahydronaphthalen-1-yl]methyl}amino)pyridine-4-carboxylic acid] | 1 to 10 | ≤ 0.1
CCN(c1ccccc1)c1ccc2c(c1)CCC[C@H]2CNc1cnccc1C(=O)O [Example 10, 3-({[(1R)-6-[ethyl(phenyl)amino]-1,2,3,4-tetrahydronaphthalen-1-yl]methyl}amino)pyridine-4-carboxylic acid] | 0.1 to 1 | ≤ 0.1
O=C(O)c1ccncc1NC[C@@H]1CCOc2cc(-c3ccccc3C(F)(F)F)ccc21 [Example 46, 3-({[(4R)-7-[2-(trifluoromethyl)phenyl]-3,4-dihydro-2H-1-benzopyran-4-yl]methyl}amino)pyridine-4-carboxylic acid] | 0.1 to 1 | ≤ 0.1
O=C(O)c1ccncc1NC[C@@H]1CCCc2cc(Sc3ccc(F)cc3)ccc21 [Example 77, 3-({[(1R)-6-[(4-fluorophenyl)sulfanyl]-1,2,3,4-tetrahydronaphthalen-1-yl]methyl}amino)pyridine-4-carboxylic acid] | 0.1 to 1 | ≤ 0.1
CN(c1ccc2c(c1)OCC[C@H]2CNc1cnccc1C(=O)O)c1ccc(F)cc1F [Example 104, 3-({[(4R)-7-[(2,4-difluorophenyl)(methyl)amino]-3,4-dihydro-2H-1-benzopyran-4-yl]methyl}amino)pyridine-4-carboxylic acid] | 0.1 to 1 | 0.1 to 1
Cc1ccc(-c2ccc3c(c2)OCC[C@H]3CNc2cnccc2C(=O)O)cc1 [Example 32, 3-({[(4R)-7-(4-methylphenyl)-3,4-dihydro-2H-1-benzopyran-4-yl]methyl}amino)pyridine-4-carboxylic acid] | 0.1 to 1 | 1 to 10
CN(c1ccc2c(c1)OCC[C@H]2CNc1cnccc1C(=O)O)c1ccc2ccoc2c1 [Example 141, 3-({[(4R)-7-[(1-benzofuran-6-yl)(methyl)amino]-3,4-dihydro-2H-1-benzopyran-4-yl]methyl}amino)pyridine-4-carboxylic acid] | 0.1 to 1 | 0.1 to 1
Cc1cccc(Sc2ccc3c(c2)CCC[C@H]3CNc2cnccc2C(=O)O)c1 [Example 69, 3-({[(1R)-6-[(3-methylphenyl)sulfanyl]-1,2,3,4-tetrahydronaphthalen-1-yl]methyl}amino)pyridine-4-carboxylic acid] | 1 to 10 | 0.1 to 1
O=C(O)c1ccncc1NC[C@@H]1CCCc2cc(S(=O)(=O)c3ccccc3)ccc21 [Example 82, 3-({[(1R)-6-(benzenesulfonyl)-1,2,3,4-tetrahydronaphthalen-1-yl]methyl}amino)pyridine-4-carboxylic acid] | 0.1 to 1 | > 10
CN(c1ccc2c(c1)OCC[C@H]2CNc1cnccc1C(=O)O)c1ccc2occc2c1 [Example 136, 3-({[(4R)-7-[(1-benzofuran-5-yl)(methyl)amino]-3,4-dihydro-2H-1-benzopyran-4-yl]methyl}amino)pyridine-4-carboxylic acid] | 0.1 to 1 | ≤ 0.1
CN(c1ccc(C#N)cc1)c1ccc2c(c1)CCC[C@H]2CNc1cnccc1C(=O)O [Example 103, 3-({[(1R)-6-[(4-cyanophenyl)(methyl)amino]-1,2,3,4-tetrahydronaphthalen-1-yl]methyl}amino)pyridine-4-carboxylic acid] | 0.1 to 1 | 0.1 to 1
O=C(O)c1ccncc1NC[C@@H]1CCOc2cc(-c3cc(F)ccc3Cl)ccc21 [Example 45, 3-({[(4R)-7-(2-chloro-5-fluorophenyl)-3,4-dihydro-2H-1-benzopyran-4-yl]methyl}amino)pyridine-4-carboxylic acid] | 0.1 to 1 | 0.1 to 1
CN(c1cccc(C#N)c1)c1ccc2c(c1)CCC[C@H]2CNc1cnccc1C(=O)O [Example 115, 3-({[(1R)-6-[(3-cyanophenyl)(methyl)amino]-1,2,3,4-tetrahydronaphthalen-1-yl]methyl}amino)pyridine-4-carboxylic acid] | 0.1 to 1 | 0.1 to 1
O=C(O)c1ccncc1NCC1CCCc2c1ccc1c2OCC1 (stereo not drawn) [Example 92, 3-({2H,3H,6H,7H,8H,9H-naphtho[1,2-b]furan-6-ylmethyl}amino)pyridine-4-carboxylic acid] | 0.1 to 1 | 1 to 10
COCCOc1ccc(N(C)c2ccc3c(c2)CCC[C@H]3CNc2cnccc2C(=O)O)cc1 [Example 197, 3-({[(1R)-6-{[4-(2-methoxyethoxy)phenyl](methyl)amino}-1,2,3,4-tetrahydronaphthalen-1-yl]methyl}amino)pyridine-4-carboxylic acid] | 0.1 to 1 | ≤ 0.1
COc1cc(N(C)c2ccc3c(c2)CCC[C@H]3CNc2cnccc2C(=O)O)ccc1F [Example 114, 3-({[(1R)-6-[(4-fluoro-3-methoxyphenyl)(methyl)amino]-1,2,3,4-tetrahydronaphthalen-1-yl]methyl}amino)pyridine-4-carboxylic acid] | 0.1 to 1 | 0.1 to 1

Next, values leading:

IC50 (JMJD2C) [µM] | IC50 [1] [µM] | SMILES
0.1 to 1 | ≤ 0.1 | Cc1ccc(F)cc1-c1ccc2c(c1)OCC[C@H]2CNc1cnccc1C(=O)O [Example 43, 3-({[(4R)-7-(5-fluoro-2-methylphenyl)-3,4-dihydro-2H-1-benzopyran-4-yl]methyl}amino)pyridine-4-carboxylic acid]
0.1 to 1 | 0.1 to 1 | CN(c1ccc(N2CC(O)C2)cc1)c1ccc2c(c1)CCC[C@H]2CNc1cnccc1C(=O)O [Example 200, 3-({[(1R)-6-{[4-(3-hydroxyazetidin-1-yl)phenyl](methyl)amino}-1,2,3,4-tetrahydronaphthalen-1-yl]methyl}amino)pyridine-4-carboxylic acid]
0.1 to 1 | ≤ 0.1 | CC(C)c1ccc(N(C)c2ccc3c(c2)OCC[C@H]3CNc2cnccc2C(=O)O)nc1 [Example 199, 3-({[(4R)-7-{methyl[5-(propan-2-yl)pyridin-2-yl]amino}-3,4-dihydro-2H-1-benzopyran-4-yl]methyl}amino)pyridine-4-carboxylic acid]
0.1 to 1 | > 10 | Cc1cccc(S(=O)(=O)c2ccc3c(c2)CCC[C@H]3CNc2cnccc2C(=O)O)c1 [Example 86, 3-({[(1R)-6-(3-methylbenzenesulfonyl)-1,2,3,4-tetrahydronaphthalen-1-yl]methyl}amino)pyridine-4-carboxylic acid]
0.1 to 1 | 1 to 10 | O=C(O)c1ccncc1NCC1CCOc2cc(Nc3ccccc3)ccc21 (stereo not drawn) [Example 15, 3-({[7-(phenylamino)-3,4-dihydro-2H-1-benzopyran-4-yl]methyl}amino)pyridine-4-carboxylic acid]
0.1 to 1 | ≤ 0.1 | CN(c1ccc2c(c1)CCC2)c1ccc2c(c1)OCC[C@H]2CNc1cnccc1C(=O)O [Example 131, 3-({[(4R)-7-[(2,3-dihydro-1H-inden-5-yl)(methyl)amino]-3,4-dihydro-2H-1-benzopyran-4-yl]methyl}amino)pyridine-4-carboxylic acid]
0.1 to 1 | > 10 | CC(C)C#Cc1ccc2c(c1)OCCC2CNc1cnccc1C(=O)O (stereo not drawn) [Example 38, 3-({[7-(3-methylbut-1-yn-1-yl)-3,4-dihydro-2H-1-benzopyran-4-yl]methyl}amino)pyridine-4-carboxylic acid]
0.1 to 1 | ≤ 0.1 | C=Cc1ccc(N(C)c2ccc3c(c2)OCC[C@H]3CNc2cnccc2C(=O)O)cc1 [Example 176, 3-({[(4R)-7-[(4-ethenylphenyl)(methyl)amino]-3,4-dihydro-2H-1-benzopyran-4-yl]methyl}amino)pyridine-4-carboxylic acid]
0.1 to 1 | ≤ 0.1 | CN(c1ccc(N2CC(F)(F)C2)cc1)c1ccc2c(c1)OCC[C@H]2CNc1cnccc1C(=O)O [Example 196, 3-({[(4R)-7-{[4-(3,3-difluoroazetidin-1-yl)phenyl](methyl)amino}-3,4-dihydro-2H-1-benzopyran-4-yl]methyl}amino)pyridine-4-carboxylic acid]
0.1 to 1 | ≤ 0.1 | Cc1ccccc1-c1ccc2c(c1)OCC[C@H]2CNc1cnccc1C(=O)O [Example 101, 3-({[(4R)-7-(2-methylphenyl)-3,4-dihydro-2H-1-benzopyran-4-yl]methyl}amino)pyridine-4-carboxylic acid]
